“Also recorded” adds a separate entry of the source. Where two headings read alike, the source gives them in different places.

The subject of assay [1] is primary human microvascular endothelial cells. In words: Hypoxia assay: hypoxia induced TGFβ2 production (MSD ELISA). It is filed as cell-based. The protocol: The assay uses the following materials and reagents: • Human dermal microvascular endothelial cells are obtained from (Lonza, 2543). • All experiments are performed with cells between passage 4 and passage 8. […]
Culturing endothelial cells: Dermal endothelial cells from each of the indicated donors are grown in T175 flasks with normal culturing media in 37° C./5% CO2 incubator. […] Cells are counted and plated into new T175 for further expansion or plated for the experiment as described in the protocol below. […]
• Day 0: Cells are trypsinized, counted and plated such that each well contains 8×10^3 cells and 100 μl of media and put in an incubator overnight (37° C.) • Day 1: Media is aspirated and replaced with basal media left at 37° C. overnight-24 hours • Day 2: Basal media is replaced with 90 μL of fresh basal media. […]
After treatment plates are left in 37° C. […] Supernatant is collected and TGFβ2 μlevels are measured using MSD ELISA.
Dermal microvascular endothelial cells from three normal donors are plated and grown to confluence. […] Cells and supernatants are collected after 48 hours and TGFβ2 μlevels are measured by MSD-ELISA. MSD plates are read using the MSD QuickPlex SQ 120 Instrument. […]

The subject of assay [2] is bleomycin-induced pulmonary fibrosis. In words: Bleomycin-induced pulmonary fibrosis, therapeutic dosing. Format: in vivo, C57Bl/6 mice. The protocol: Compounds and formulation: Compound: Compound 114 (sample ID 30295026), batch 5 and EX00076637 (EX76637/riociguat), sample ID 17810950, batch 5 are both dissolved in Methylcellulose solution. The concentration is 10 mg/kg, 3 mg/kg and 1 mg/kg in a volume of 0.1 ml p.o. Nintedanib ethanesulfonate is prepared freshly every second day. The concentration is 60 mg/kg in a volume of 0.1 ml p.o. Hydroxyproline assay: The amount of collagen protein in skin samples is determined via hydroxyproline assay. After digestion of full skin thickness punch biopsies (Ø 3 mm) derived from the upper back in 6 M HCl for three hours at 120° C., the pH of the samples is adjusted to 6 with 6 M NaOH. For lungs, the middle lobe is analyzed. Afterwards, 0.06 M chloramine T is added to each sample and incubated for 20 min at room temperature. Next, 3.15 M perchloric acid and 20% p-dimethylaminobenzaldehyde are added and samples are incubated for additional 20 min at 60° C. The absorbance is determined at 557 nm with a Spectra MAX 190 microplate spectrophotometer using a standard curve generated with purified type I collagen (Sigma-Aldrich). In the model of bleomycin-induced lung fibrosis, fibrosis is induced by a single intratracheal injection of 50 μl bleomycin at day 0. Mice injected with equal volumes of 0.9% NaCl served as controls. The outcome is analyzed after 28 days. Treatment is started at day 15 post intratracheal installation of bleomycin and thus at a timepoint, when fibrosis is already preestablished. […] Histological evaluation of pulmonary fibrosis: Whole lungs are excised, fixed in 4% formalin for 6 h and embedded in paraffin. […] are cut and stained with Sirius Red. Images are captured using a Hamamatsu nano sumo S60 slide scanner microscope (Hamamatsu, Herrsching am Ammersee, Germany). Histological changes of pulmonary fibrosis are quantified by Ashcroft Scoring. The analysis is performed in a blinded manner. […] Statistics: All data are presented as median ±range, and differences between the groups are tested for their statistical significance by Mann-Whitney U non-parametric test for non-related samples.

Assay [3] has as its system bleomycin-induced dermal fibrosis. It is filed as in vivo.
Assay [4] concerns platelet-rich plasma (PRP) from healthy donor volunteers. Nature of the assay: Activation of PRP by ADP and CXCL4 detection by ELISA. As to conditions: for ADP-induced CXCL4 production: PRP of 10 donors. Format: cell-based, human. The protocol: • Compound 114 (sample ID: 30295026, batch: 5) • EX0076637 (sample ID: 17810950, batch: 5) • Nintedanib esilate (Boehringer Ingelheim, Manufacture #67653, lot #1078235) • EX0000076 (sample ID: 15614118, batch: 1) • Blood from healthy donor volunteers • Plastic blood collection tubes with sodium citrate (BD biosciences, 363083) • 50 ml conical tube (Corning, 430828) • BSA solution, 30% in saline, fatty acid free, aseptically filled (Sigma, A9205) • ADP (Sigma, 01905-250MG-F) • Tyrode's buffer (Sigma, T2397) • HEPES (Gibco, 15630-080) • DMSO (Sigma, D2650) • 1 ml deep well plate (Thermo Scientific, 260251) • Sterile 0.22 um PVDF filter plate (Millipore, MAGVS2210) • 96 well microplate (Thermo Scientific, 249946) • CXCL4 ELISA kit (Abcam, ab189573 and R&D systems, DPF40)
Buffer preparation: HEPES-Tyrode BSA buffer: Tyrode's buffer supplemented with 0.35% BSA and 5 mM HEPES.
Generating platelet-rich plasma (PRP): Blood is collected from healthy donor volunteers, into plastic sodium citrate tubes. The first two collected tubes are discarded. The remaining blood is processed within 30 mins of blood drawing. The blood is poured into 50 ml conical tubes without exceeding 35 ml per tube and centrifuged at 200×g for 16 minutes at room temperature with acceleration set at half of maximum speed and deceleration off. After centrifugation, the top layer (PRP) is carefully transferred to a new tube by avoiding the buffy coat. The PRP is rested at room temperature for 5-15 minutes. The PRP is then ready to use for experiment as described in protocol below.
Preparation of Compound: 5.2 mg of Compound 114 is dissolved in […] of 100% DMSO at a concentration of 20 mM. The compound solution is then diluted to 10 mM in 100% DMSO. 10 mM of the compound solution is then diluted to 1 mM and 100 μM in 100% DMSO and then secondarily diluted to 100 μM, 10 μM, and 1 μM in HEPES-Tyrode BSA buffer, making 10× stock solutions.
Preparation of Compound 114 and EX 76637: 5.2 mg of Compound 114 is dissolved in […] of 100% DMSO at a concentration of 20 mM. 2.3 mg of EX 76637 is dissolved in 109 μl of 100% DMSO at a concentration of 50 mM. The compound solution is then diluted to 10 mM in 100% DMSO. 10 mM of the compound solution is then diluted to 1 mM and […] in 100% DMSO and then secondarily diluted to 100 μM, 10 μM, and 1 μM in HEPES-Tyrode BSA buffer, making 10× stock solutions.
Preparation of nintedanib: 2.9 mg of nintedanib is dissolved in 446.3 μl of 100% DMSO at a concentration of 10 mM. The compound solution is then diluted to 100 μM in 100% DMSO. 100 μM of the compound solution is then diluted to […] in HEPES-Tyrode BSA buffer, making 10× stock solutions.
Preparation of EX 00000776 (MMF): 2.3 mg of EX 00000776 is dissolved in 530.5 μl of 100% DMSO at a concentration of 10 mM. The compound solution is then diluted to 5 mM in 100% DMSO. 5 mM of the compound solution is then diluted to 50 µM in HEPES-Tyrode BSA buffer, making 10× stock solutions.
ADP is dissolved in distilled water at concentration of 100 mM. 100 mM ADP are further diluted in HEPES-Tyrode BSA buffer to 10 mM and then secondarily diluted to 100 μM in HEPES-Tyrode BSA buffer, making a 10× stock.
Eighty or forty microliters of PRP is added into a well of a 1 ml deep well plate containing 560 μl or 280 μl of HEPES-Tyrode BSA buffer. Eighty or forty microliters of the 10× compound solution is added per well and incubated at 37° C./5% CO2 for 30 mins prior to addition of ADP. Eighty or forty microliters of 100 μM ADP is added per well and the plate incubated at 37° C./5% CO2 for 5 mins. After 5 minutes of incubation, 300 microliters per well of stimulated PRP is transferred to a sterile 0.22 um PVDF 96-well filter plate. A 96 well microplate is placed under the filter plate to collect supernatant after centrifugation at 1100 rpm for 5 mins. […]
For orientation: In an ELISA, binding on a coated surface is turned into a signal by an enzyme label.

Where [5] appears, read: treatment initiated two weeks after instillation of bleomycin until end of experiment.
Where [6] appears, read: 60 mg/kg qd for the last three weeks, vs bleomycin/vehicle mice.

In the case of `CCOc1c(C(=O)O)cnn1-c1cccc(-c2cccc(C)c2OCc2ccc3c(c2C)CCN(C2CCOCC2)C3)n1` [Compound 114], the “hypoxia-driven TGFβ2 production, statistical significance of reduction” value in assay [1] (10 μM Compound 114, hypoxia 1% O2) is listed as “Statistically significant reduction”. In assay [1] (hypoxia 1% O2, 48 hrs, ODQ, supernatant, cells from 3 donors), the “hypoxia-induced TGFβ2 production” value is recorded as “inhibits hypoxia-induced TGFβ2 levels; also recorded: reduced hypoxia-driven TGFβ2 production in a concentration-dependent manner”. For the same compound, in assay [2] (doses of 1, 3 or 10 mg/kg), the “fibrotic readouts of pulmonary fibrosis” value is “significantly improved the fibrotic readouts”. For the same compound, in assay [2] (doses of 1, 3 or 10 mg/kg, differences did not reach statistical significance), the “dose trend for the Ashcroft score” value is given as “tendency towards more pronounced effects with higher doses”. In addition, the bleomycin-induced dermal fibrosis result in assay [3] (doses of 1, 3 or 5 mg/kg for the last two weeks) is recorded as “also ameliorated bleomycin-induced dermal fibrosis”. Also, the “effects on dermal fibrosis compared with nintedanib” value in assay [3] (doses of 1, 3 or 5 mg/kg vs nintedanib 60 mg/kg qd) was “within the range of those observed with nintedanib”. The “dose-dependency of effect on dermal fibrosis” value in assay [3] (doses of 1, 3 or 5 mg/kg, trends for dermal thickness and myofibroblast counts) was “no clear dose-dependency was observed”. Also, the “ADP-induced CXCL4 production” value is given as “reduced ADP-induced CXCL4 production in 9 out of 10 donors” in assay [4] (0.1 μM, 10 μM ADP); “attenuated the ADP-induced CXCL4 production in all 10 donors” in assay [4] (1 μM and 10 μM, 10 μM ADP). In addition, the “ADP-induced CXCL4 production, percentage of Max of all donors” value in assay [4] (10 μM, 1 μM, 0.1 μM, 10 μM ADP, compared to ADP/DMSO) is “significantly reduced ADP-induced CXCL4 production in a dose-dependent manner”. Further, the “potency/efficacy on ADP-induced CXCL4 production relative to nintedanib, mycophenolate (MMF) and riociguat” value in assay [4] (FIG. 5) is listed as “more potent/more efficacious”.
As for `COC(=O)N(C)c1c(N)nc(-c2nn(Cc3ccccc3F)c3ncccc23)nc1N` [EX76637, riociguat], the bleomycin-induced pulmonary fibrosis result in assay [2] (1 mg/kg bid p.o.) is “also ameliorated bleomycin-induced pulmonary fibrosis”. Moreover, in assay [3] (doses of 1 mg/kg), the bleomycin-induced dermal fibrosis entry is recorded as “also ameliorated bleomycin-induced dermal fibrosis” and the “effects on dermal fibrosis compared with Compound 114” value is given as “comparable to those of Compound 114”.
For the compound `COC(=O)c1ccc2c(c1)NC(=O)/C2=C(\Nc1ccc(N(C)C(=O)CN2CCN(C)CC2)cc1)c1ccccc1` [nintedanib, Nintedanib ethanesulfonate], in assay [2] (setting [5]), the Ashcroft scores entry is reported as “reduced”, the collagen-covered area result is “reduced” and the “hydroxyproline content (lung)” value is “reduced”. Moreover, in assay [3] (setting [6]), the dermal thickness result is “reduced”, the “hydroxyproline content (skin)” value was “lower” and the myofibroblast counts result was “decreased”. Also, the “effect on ADP-induced CXCL4 production” value in assay [4] (standards of care, 10 μM ADP) is “ineffective; also recorded: Minimal to no effect”.
Regarding `COC(=O)N(C)c1c(N)nc(-c2nn(Cc3ccccc3F)c3ncccc23)nc1N` [riociguat], in assay [4] (doses equivalent to Compound 114, 10 μM ADP), the “effect on ADP-induced CXCL4 production” value is “minimal effect; also recorded: Minimal to no effect”.

These data come from patent US12600715B2, “Soluble guanylate cyclate activators for treating systemic sclerosis” (Boehringer Ingelheim International GmbH, priority 2022, dated 2026).
